Source: ChEMBL document CHEMBL1681686, “Discovery of N-methyl-1-(1-phenylcyclohexyl)methanamine, a novel triple serotonin, norepinephrine, and dopamine reuptake inhibitor” (Bioorg Med Chem Lett, 2011)

What was measured:
Assay type in all cases: ADME, organism-based
Conditions in all cases: in vivo; call rule not given here
[1] = test system: Plasma; assay: Drug uptake in mouse plasma at 30 mg/kg, po; parameters: dose 30 mg/kg, route oral
[2] = test system: Plasma; assay: Drug uptake in mouse plasma at 3 mg/kg, po; parameters: dose 3 mg/kg, route oral
[3] = test system: Brain; assay: Drug uptake in mouse brain at 30 mg/kg, po; parameters: dose 30 mg/kg, route oral
[4] = test system: Brain; assay: Drug uptake in mouse brain at 3 mg/kg, po; parameters: dose 3 mg/kg, route oral
[5] = test system: Brain; assay: Drug uptake in mouse brain at 10 mg/kg, po; parameters: dose 10 mg/kg, route oral
[6] = test system: Plasma; assay: Drug uptake in mouse plasma at 10 mg/kg, po; parameters: dose 10 mg/kg, route oral

Q: For `CNCC1(c2ccc(Cl)c(Cl)c2)CCCCC1.Cl`, which Drug uptake [1] is on record?
A: 227 ng/mL

Q: And the Drug uptake [2]?
A: 11 ng/mL

Q: And the Drug uptake [3]?
A: 7464 ng/g

Q: What about the Drug uptake [4] of the same compound?
A: 546 ng/g

Q: And the Drug uptake [5]?
A: 2166 ng/g

Q: And the Drug uptake [6]?
A: 50 ng/mL

Q: `CNCC1(c2ccc(Cl)c(Cl)c2)CCCCC1` was tested. Which Drug uptake [3] did it give?
A: Active

Q: Which Drug uptake [1] does the source give for `CNCC1(c2ccc3ccccc3c2)CCCCC1.Cl` here?
A: 120 ng/mL

Q: What about the Drug uptake [2] of the same compound?
A: 8 ng/mL

Q: What about the Drug uptake [3] of the same compound?
A: 2175 ng/g

Q: And the Drug uptake [4]?
A: 123 ng/g

Q: And the Drug uptake [5]?
A: 306 ng/g

Q: What about the Drug uptake [6] of the same compound?
A: 21 ng/mL
